We go through twelve compounds from ChEMBL document CHEMBL1201862, “PubChem BioAssay data set” (2004).

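Dose response: 5 concentrations. Exposure: 48 h. Format: 96-well plates. Endpoint: linear interpolation; highest concentration if not reached. The concentration for 50% growth inhibition is given as GI50.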 The source made the active and inactive calls. Rule as the data show it: active = GI50 up to about 1.1 µM and inactive = higher.

Test systems include SN12C; U-251; NCI-H23; NCI-H226; K562; A549; HT-29; Malme-3M; A498; KM-20L2; SF-539; HCT-116; SF-295; EKVX; SK-OV-3; SNB-75; SNB-78; SK-MEL-2; HOP-18; MCF7.
What all share (experiment): NCI tumour cell line growth inhibition, 48 h

In the case of `CC1OC(n2ccc3ccc([N+](=O)[O-])cc32)C(O)C(O)C1O` (configuration not stated), the GI50 in the assay on SN12C, with U-251, with NCI-H23, with NCI-H226, in the assay with K562 and with A549 was > 100 µM (inactive) in each case. Besides, the GI50 in the assay on HT-29, with Malme-3M, in the assay with A498, in the assay with KM-20L2, in the assay on SF-539 and with HCT-116 was > 100 µM (inactive) each time. In addition, the GI50 with SF-295, in the assay with EKVX, in the assay with SK-OV-3, in the assay with SNB-75, in the assay on SNB-78 and in the assay on SK-MEL-2 was > 100 µM (inactive) in each case.

For the compound `COc1cc(C(C)c2cc3c(cc2OCCNC(=O)COc2cc4c(cc2C(C)c2cc(OC)c(OC)c(OC)c2)OCO4)OCO3)cc(OC)c1OC` (configuration not stated), the GI50 was 60 µM (inactive) with SN12C; > 100 µM (inactive) in the assay with U-251; > 100 µM (inactive) in the assay with NCI-H23; > 100 µM (inactive) with NCI-H226; 73.1 µM (inactive) in the assay with K562; > 100 µM (inactive) in the assay with A549. Moreover, the GI50 in the assay on HT-29 is > 100 µM (inactive); in the assay with Malme-3M, > 100 µM (inactive); in the assay with A498, > 100 µM (inactive); in the assay on KM-20L2, > 100 µM (inactive); in the assay on SF-539, > 100 µM (inactive); with HCT-116 it was 87.9 µM (inactive). For the same compound, the GI50 in the assay on SF-295 was > 100 µM (inactive); in the assay with EKVX, 29.6 µM (inactive); in the assay with SNB-75 it was 3.09 µM (inactive); in the assay on SK-MEL-2, > 100 µM (inactive).

`O=C(NN1C(=O)CS(=O)(=O)C1c1cccc(F)c1)c1ccncc1` (configuration not stated): the GI50 with SN12C was > 100 µM (inactive); with U-251, > 10 µM (inactive); in the assay on NCI-H23, > 10 µM (inactive); with NCI-H226, > 100 µM (inactive); with A549 it was > 100 µM (inactive); with HT-29, > 100 µM (inactive). Further, the GI50 was > 100 µM (inactive) in the assay on Malme-3M; > 100 µM (inactive) in the assay on A498; < 0.01 µM (active) in the assay on HOP-18; > 100 µM (inactive) in the assay with HCT-116; > 100 µM (inactive) in the assay on SF-295; > 100 µM (inactive) with SK-OV-3. The GI50 with SNB-75 is 83.8 µM (inactive); in the assay with SNB-78, > 10 µM (inactive); in the assay on SK-MEL-2, > 100 µM (inactive).

For `O=C(Nc1ccccc1)c1ccc(Cl)c([N+](=O)[O-])c1`, the GI50 is 5.21 µM (inactive) with SN12C; 19.5 µM (inactive) in the assay with U-251; 23 µM (inactive) in the assay on NCI-H23; 25.2 µM (inactive) with NCI-H226; 2.96 µM (inactive) with K562; 20.2 µM (inactive) in the assay with A549. Moreover, the GI50 with HT-29 was 13.4 µM (inactive); with Malme-3M it was 20.5 µM (inactive); in the assay with A498, 21.8 µM (inactive); in the assay on KM-20L2, 13.5 µM (inactive); in the assay with SF-539, 21.4 µM (inactive); with SF-295 it was 15.3 µM (inactive). The GI50 with EKVX is 28.4 µM (inactive); in the assay with SK-OV-3 it was 23.6 µM (inactive); with SNB-75, 13.8 µM (inactive); with SNB-78, 17.3 µM (inactive); in the assay on SK-MEL-2, 13.2 µM (inactive).

With `Nc1ccc(C(=O)N/C(=C\c2ccc3c(c2)OCO3)c2nc3ccc4c(c3[nH]2)C(=O)c2ccccc2C4=O)cc1`, the GI50 in the assay on SN12C was 30.1 µM (inactive); in the assay with U-251 it was 33 µM (inactive); in the assay with NCI-H23, 14.4 µM (inactive); in the assay on K562, 25.5 µM (inactive); in the assay with A549, 21.1 µM (inactive); in the assay with HT-29, 40.6 µM (inactive). Moreover, the GI50 in the assay with Malme-3M is 61.8 µM (inactive); in the assay on A498, 14.4 µM (inactive); in the assay on KM-20L2, 59.6 µM (inactive); in the assay with SF-539, 21.6 µM (inactive); in the assay with HCT-116 it was 23.8 µM (inactive); in the assay with SF-295 it was 41.7 µM (inactive). The GI50 is 31.8 µM (inactive) with EKVX; 23.1 µM (inactive) in the assay with SK-OV-3; 19.9 µM (inactive) in the assay with SNB-75; 45.9 µM (inactive) in the assay with SNB-78; 21.1 µM (inactive) in the assay on SK-MEL-2.

`CC(=O)NNc1nc(C)c(C(/C=C/c2ccc(Cl)cc2)=N/NC(=O)C[N+](C)(C)C)s1`: the GI50 in the assay with NCI-H23, with NCI-H226, with K562, in the assay with A549, in the assay with HT-29 and in the assay on Malme-3M was > 100 µM (inactive) throughout. Also, the GI50 in the assay with A498, in the assay with KM-20L2, in the assay with SF-539, in the assay on HOP-18, in the assay on HCT-116 and with SF-295 was > 100 µM (inactive) throughout. Besides, the GI50 with EKVX, in the assay on SK-OV-3, in the assay on SNB-75 and in the assay with SK-MEL-2 was > 100 µM (inactive) each time.

For the compound `N#CC(C#N)=C(N)/C(C#N)=C/c1ccc(O)c(O)c1`, the GI50 is 75.2 µM (inactive) in the assay on MCF7; > 89.5 µM (inactive) in the assay with U-251; > 100 µM (inactive) in the assay on NCI-H23; 46.3 µM (inactive) with NCI-H226; 48.8 µM (inactive) in the assay with K562; > 100 µM (inactive) in the assay on A549. Moreover, the GI50 is > 92.9 µM (inactive) in the assay on HT-29; > 100 µM (inactive) with Malme-3M; > 100 µM (inactive) with A498; 25.1 µM (inactive) in the assay on KM-20L2; > 100 µM (inactive) in the assay on SF-539; 54 µM (inactive) in the assay with HCT-116. Moreover, the GI50 in the assay on SF-295 was > 20.4 µM (inactive); in the assay on EKVX it was > 70.3 µM (inactive); with SK-OV-3 it was > 100 µM (inactive); with SNB-75, 74.8 µM (inactive); in the assay on SNB-78, > 100 µM (inactive); with SK-MEL-2 it was > 100 µM (inactive).

In the case of `CN(C)CCNC(=O)c1cccc2nc3c(Cl)cccc3nc12`, the GI50 is 4.52 µM (inactive) in the assay on SN12C; 5.18 µM (inactive) in the assay with U-251; 5.61 µM (inactive) with NCI-H23; 3.55 µM (inactive) in the assay on NCI-H226; 2.31 µM (inactive) with K562; 4.33 µM (inactive) with A549. In addition, the GI50 with HT-29 was 3.18 µM (inactive); with Malme-3M it was 2 µM (inactive); in the assay with A498 it was 4.63 µM (inactive); with KM-20L2, 5.52 µM (inactive); in the assay with SF-539, 4.75 µM (inactive); with HOP-18, > 30.7 µM (inactive). For the same compound, the GI50 was 3.16 µM (inactive) in the assay with HCT-116; 4.8 µM (inactive) with SF-295; 8.61 µM (inactive) in the assay with EKVX; 17.3 µM (inactive) in the assay with SK-OV-3; 7.48 µM (inactive) with SNB-75; 5.22 µM (inactive) with SK-MEL-2.

For the compound `CC(=O)NNc1nc(C)c(C(=O)NNC(=O)C(=O)Nc2ccc(Cl)c([N+](=O)[O-])c2)s1`, the GI50 with SN12C was 71.8 µM (inactive); with U-251, 50.9 µM (inactive); in the assay with NCI-H23, 37.7 µM (inactive); in the assay on NCI-H226, > 100 µM (inactive); in the assay on K562, 26.2 µM (inactive); in the assay with A549, 85.5 µM (inactive). Moreover, the GI50 in the assay on HT-29 is > 100 µM (inactive); with Malme-3M, 71.4 µM (inactive); with KM-20L2 it was > 100 µM (inactive); in the assay with SF-539 it was 53 µM (inactive); with HCT-116 it was 85.3 µM (inactive); with SF-295, 74.8 µM (inactive). Further, the GI50 in the assay on EKVX is > 100 µM (inactive); in the assay on SK-OV-3, > 100 µM (inactive); in the assay with SNB-78 it was 45.8 µM (inactive); in the assay with SK-MEL-2, > 100 µM (inactive).

Regarding `CC1=CCC[C@@]2(C)C(CC[C@@H]2C(C)/C=C/C(C)C)c2ccc(cc2C(=O)O)C[C@@H](O)CC1` (some centres not stated), the GI50 in the assay on SN12C is 16 µM (inactive); in the assay with U-251, 3.94 µM (inactive); with NCI-H23, > 10 µM (inactive); in the assay with NCI-H226, 18.5 µM (inactive); in the assay with K562, 9.89 µM (inactive); with A549, 6.14 µM (inactive). The GI50 in the assay on HT-29 is 5.13 µM (inactive); in the assay on Malme-3M, 15.7 µM (inactive); in the assay on A498 it was 20.2 µM (inactive); with SF-539, 8.55 µM (inactive); with HCT-116, 5.21 µM (inactive); in the assay with SF-295, 9.27 µM (inactive). Moreover, the GI50 in the assay with SK-OV-3 is 18.1 µM (inactive); in the assay on SNB-75, 13.8 µM (inactive); with SNB-78, 16.1 µM (inactive); in the assay on SK-MEL-2, 17.1 µM (inactive).

Consider `Cc1ccc(S(=O)(=O)N/N=C(\C(=O)Nc2cccc([N+](=O)[O-])c2)c2nc3ccc([N+](=O)[O-])cc3nc2O)cc1`, for which the GI50 was > 100 µM (inactive) with SN12C; 70.3 µM (inactive) with U-251; 72.4 µM (inactive) in the assay on NCI-H23; 37.2 µM (inactive) in the assay on NCI-H226; 7.38 µM (inactive) with K562; 31.8 µM (inactive) in the assay on A549. Moreover, the GI50 in the assay on HT-29 was 53 µM (inactive); in the assay on Malme-3M it was 77.3 µM (inactive); in the assay on A498 it was 17.1 µM (inactive); in the assay with SF-539, 24.6 µM (inactive); with HCT-116, 27.5 µM (inactive); in the assay on SF-295, 29 µM (inactive). The GI50 in the assay with EKVX is 33.5 µM (inactive); in the assay on SK-OV-3, > 100 µM (inactive); with SNB-78 it was > 100 µM (inactive); in the assay on SK-MEL-2 it was > 100 µM (inactive).

Turning to `CNS(=O)(=O)NNS(=O)(=O)c1ccc(F)cc1`, the GI50 with U-251, with NCI-H23, in the assay with NCI-H226, with K562, in the assay on A549 and with HT-29 was > 100 µM (inactive) throughout. The GI50 in the assay with A498, in the assay with KM-20L2, in the assay on SF-539, in the assay with HCT-116, in the assay with SF-295 and with EKVX was > 100 µM (inactive) in each case. In addition, the GI50 in the assay on SNB-75 and in the assay with SK-MEL-2 was > 100 µM (inactive) each time.
